Results from the supplement of paper PMC8612539.
Values after ≈ are worked out from the molar mass of the structure shown.

Test system: Escherichia coli
Experiment: minimum inhibitory concentration (MIC)
Experimental: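 Broth microdilution MIC (Sensititre BOPO7F bovine plate, CLSI methods) of 19 antimicrobials against field isolates of P. multocida, M. haemolytica, H. somni (deep nasopharyngeal swabs) and E. coli, Enterococcus spp. (rectal swabs) from weaned dairy heifers. Incubation 16-24 h at 35 C. MIC is the lowest concentration preventing visible growth. Values with <= or > lie at the tested range limits. Trimethoprim-sulfamethoxazole is given as the trimethoprim component of a 1:19 mixture.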

CNC(C)C1CCC(N)C(OC2C(N)CC(N)C(OC3OCC(C)(O)C(NC)C3O)C2O)O1 (stereo not given) [Gentamicin]
Conditions | minimum inhibitory concentration [µg/mL]
isolate (source animal id): 8 | ≤ 1
isolate (source animal id): 9 | ≤ 1
isolate (source animal id): 10 | ≤ 1
isolate (source animal id): 11 | ≤ 1
isolate (source animal id): 12 | ≤ 1
isolate (source animal id): 13 | ≤ 1
isolate (source animal id): 14 | ≤ 1
isolate (source animal id): 15 | ≤ 1
isolate (source animal id): 16 | ≤ 1
isolate (source animal id): 98 | ≤ 1
isolate (source animal id): 99 | ≤ 1
isolate (source animal id): 100 | ≤ 1
isolate (source animal id): 101 | ≤ 1
isolate (source animal id): 102 | ≤ 1
isolate (source animal id): 103 | ≤ 1
isolate (source animal id): 104 | ≤ 1
isolate (source animal id): 105 | ≤ 1
isolate (source animal id): 106 | ≤ 1
isolate (source animal id): 107 | ≤ 1
isolate (source animal id): 108 | ≤ 1
isolate (source animal id): 109 | ≤ 1
isolate (source animal id): 110 | ≤ 1
isolate (source animal id): 111 | ≤ 1
isolate (source animal id): 112 | ≤ 1
isolate (source animal id): 113 | ≤ 1
isolate (source animal id): 114 | ≤ 1
isolate (source animal id): 115 | ≤ 1
isolate (source animal id): 116 | ≤ 1
isolate (source animal id): 117 | ≤ 1
isolate (source animal id): 118 | ≤ 1
isolate (source animal id): 119 | ≤ 1
isolate (source animal id): 120 | ≤ 1
isolate (source animal id): 121 | ≤ 1
isolate (source animal id): 122 | 8 (≈ 16.8 µM)
isolate (source animal id): 123 | ≤ 1
isolate (source animal id): 124 | 2 (≈ 4.19 µM)
isolate (source animal id): 125 | ≤ 1
isolate (source animal id): 126 | ≤ 1
isolate (source animal id): 127 | ≤ 1
isolate (source animal id): 128 | ≤ 1
isolate (source animal id): 129 | ≤ 1
isolate (source animal id): 130 | ≤ 1
isolate (source animal id): 131 | ≤ 1
isolate (source animal id): 132 | ≤ 1
isolate (source animal id): 133 | ≤ 1
isolate (source animal id): 134 | ≤ 1
isolate (source animal id): 135 | ≤ 1
isolate (source animal id): 136 | ≤ 1
isolate (source animal id): 137 | ≤ 1
isolate (source animal id): 138 | ≤ 1
isolate (source animal id): 139 | ≤ 1
isolate (source animal id): 140 | ≤ 1
isolate (source animal id): 141 | ≤ 1
isolate (source animal id): 142 | ≤ 1
isolate (source animal id): 143 | ≤ 1
isolate (source animal id): 144 | ≤ 1
isolate (source animal id): 145 | ≤ 1
isolate (source animal id): 146 | ≤ 1
isolate (source animal id): 147 | ≤ 1
isolate (source animal id): 148 | ≤ 1
isolate (source animal id): 149 | ≤ 1
isolate (source animal id): 150 | ≤ 1
isolate (source animal id): 151 | ≤ 1
isolate (source animal id): 152 | ≤ 1
isolate (source animal id): 153 | ≤ 1
isolate (source animal id): 154 | ≤ 1
isolate (source animal id): 155 | ≤ 1
isolate (source animal id): 156 | ≤ 1
isolate (source animal id): 157 | ≤ 1
isolate (source animal id): 158 | ≤ 1
isolate (source animal id): 159 | ≤ 1
isolate (source animal id): 160 | ≤ 1
isolate (source animal id): 161 | ≤ 1
isolate (source animal id): 162 | ≤ 1
isolate (source animal id): 163 | ≤ 1
isolate (source animal id): 164 | ≤ 1
isolate (source animal id): 165 | ≤ 1
isolate (source animal id): 166 | ≤ 1
isolate (source animal id): 167 | ≤ 1
isolate (source animal id): 168 | ≤ 1
isolate (source animal id): 169 | ≤ 1
isolate (source animal id): 170 | ≤ 1
isolate (source animal id): 171 | ≤ 1
isolate (source animal id): 172 | ≤ 1
isolate (source animal id): 173 | ≤ 1
isolate (source animal id): 174 | ≤ 1
isolate (source animal id): 175 | ≤ 1
isolate (source animal id): 176 | ≤ 1
isolate (source animal id): 177 | ≤ 1
isolate (source animal id): 178 | ≤ 1
isolate (source animal id): 179 | ≤ 1
isolate (source animal id): 180 | 4 (≈ 8.38 µM)
isolate (source animal id): 181 | ≤ 1
isolate (source animal id): 182 | ≤ 1
isolate (source animal id): 183 | ≤ 1
isolate (source animal id): 184 | ≤ 1
isolate (source animal id): 185 | ≤ 1
isolate (source animal id): 186 | ≤ 1
isolate (source animal id): 187 | 8 (≈ 16.8 µM)
isolate (source animal id): 188 | ≤ 1
